Reference: patent US4100346A, “Certain 7(o-amino-methyl- or methylaminomethylphenyl- or cyclohexadienyl- or thienylacetamide)-3[1-carboxymethyl-(or ethyl- or propyl-)-tetrazol-5-ylthiomethyl]-3-cephem-4-carboxylic acids” (Bristol-Myers Company, priority 1976, dated 1978)
In brackets after ≈: the same amount, converted by molar mass. Where two headings read alike, the source gives them in different places.

Assays:
Klebsiella pneumoniae [1] = test: Minimum growth inhibitory and bactericidal concentrations for Enterobacteriaceae; assay type: cell-based; conditions: for MBC: read-out: MBC, minimum bactericidal concentration; for MIC: read-out: MIC, Minimum growth inhibitory concentration
Source text: (§1) Miscellaneous. Methods for determining bactericidal activity and susceptibility to cell-free β-lactamase were those previously used; Leitner et al., BL-S640, A Cephalosporin With a Broad Spectrum of Antibacterial Activity: Properties in vitro, Antimicrob. Agents Chemother. 7:298-305 (1975).
(§2) *MIC, Minimum growth inhibitory concentration; MBC, minimum bactericidal
(§3) concentration; expressed as micrograms per milliliter. The inoculum was […]

Proteus vulgaris = test: as above; assay type: cell-based; conditions: Proteus vulgaris, inoculum 10^4 cells; for MBC: read-out: MBC, minimum bactericidal concentration; for MIC: read-out: MIC, Minimum growth inhibitory concentration
Source text: as §1, §2, §3

Proteus mirabilis = test: as above; assay type: cell-based; conditions: for MBC: read-out: MBC, minimum bactericidal concentration; for MIC: read-out: MIC, Minimum growth inhibitory concentration
Source text: as §1, §2, §3

Enterobacter cloacae = test: Intramuscular treatment of systemically infected mice; assay type: in vivo; conditions: Enterobacter cloacae, im, 3.5 h, read-out: PD50 /treatment
Source text: Treatment of Systemically Infected Mice. The procedures were identical with those published previously [Leitner et al., BL-S640, a Cephalosporin With a Broad Spectrum of Antibacterial Activity: Bioavailability and Therapeutic Properties in Rodents, Antimicrob. Agents Chemother.
(a) the hog gastric mucin used in infections with Staphylococcus aureus No. 2 was purchased from American Laboratories, Inc., Omaha, Neb.

Klebsiella pneumoniae [2] = test: Effect of inoculum size on susceptibility of Enterobacteriaceae
Edwardsiella tarda = test: Growth inhibitory activity, antibiotic dilution technique; conditions: read-out: Minimum inhibitory concentration
Pasteurella multocida = test: as above; conditions: read-out: Minimum inhibitory concentration
[3] = Klebsiella pneumoniae strain 1, inoculum 10^4 cells
[4] = Klebsiella pneumoniae strain 2, inoculum 10^4 cells
[5] = Klebsiella pneumoniae strain 3, inoculum 10^4 cells
[6] = Klebsiella pneumoniae strain 4, inoculum 10^4 cells
[7] = Klebsiella pneumoniae strain 5, inoculum 10^4 cells
[8] = Klebsiella pneumoniae strain 6, inoculum 10^4 cells
[9] = Proteus mirabilis strain 1, inoculum 10^4 cells
[10] = Proteus mirabilis strain 2, inoculum 10^4 cells
[11] = Proteus mirabilis strain 3, inoculum 10^4 cells
[12] = Proteus mirabilis strain 4, inoculum 10^4 cells
[13] = Proteus mirabilis strain 5, inoculum 10^4 cells

CC(=O)OCC1=C(C(=O)O)N2C(=O)[C@@H](NC(=O)Cc3cccs3)[C@H]2SC1 [Cephalothin]
MBC (Klebsiella pneumoniae [1]; [3]): 2 µg/mL (≈ 5.04 µM) | MIC (Klebsiella pneumoniae [1]; [3]): 2 µg/mL (≈ 5.04 µM) | MBC (Klebsiella pneumoniae [1]; [4]): 8 µg/mL (≈ 20.2 µM) | MIC (Klebsiella pneumoniae [1]; [4]): 4 µg/mL (≈ 10.1 µM) | MBC (Klebsiella pneumoniae [1]; [5]): 4 µg/mL (≈ 10.1 µM) | MIC (Klebsiella pneumoniae [1]; [5]): 2 µg/mL (≈ 5.04 µM) | MBC (Klebsiella pneumoniae [1]; [6]): 4 µg/mL (≈ 10.1 µM) | MIC (Klebsiella pneumoniae [1]; [6]): 4 µg/mL (≈ 10.1 µM) | MBC (Klebsiella pneumoniae [1]; [7]): 8 µg/mL (≈ 20.2 µM) | MIC (Klebsiella pneumoniae [1]; [7]): 8 µg/mL (≈ 20.2 µM) | MBC (Klebsiella pneumoniae [1]; [8]): 2 µg/mL (≈ 5.04 µM) | MIC (Klebsiella pneumoniae [1]; [8]): 2 µg/mL (≈ 5.04 µM) | MBC (Proteus vulgaris; Proteus vulgaris strain 1): 2 µg/mL (≈ 5.04 µM) | MIC (Proteus vulgaris; Proteus vulgaris strain 1): 1 µg/mL (≈ 2.52 µM) | MBC (Proteus vulgaris; Proteus vulgaris strain 2): 16 µg/mL (≈ 40.4 µM) | MIC (Proteus vulgaris; Proteus vulgaris strain 2): 8 µg/mL (≈ 20.2 µM) | MBC (Proteus vulgaris; Proteus vulgaris strain 4): 16 µg/mL (≈ 40.4 µM) | MIC (Proteus vulgaris; Proteus vulgaris strain 4): 8 µg/mL (≈ 20.2 µM) | MBC (Proteus mirabilis; [9]): 32 µg/mL (≈ 80.7 µM) | MIC (Proteus mirabilis; [9]): 8 µg/mL (≈ 20.2 µM) | MBC (Proteus mirabilis; [10]): 32 µg/mL (≈ 80.7 µM) | MIC (Proteus mirabilis; [10]): 8 µg/mL (≈ 20.2 µM) | MBC (Proteus mirabilis; [11]): 8 µg/mL (≈ 20.2 µM) | MIC (Proteus mirabilis; [11]): 8 µg/mL (≈ 20.2 µM) | MBC (Proteus mirabilis; [12]): 8 µg/mL (≈ 20.2 µM) | MIC (Proteus mirabilis; [12]): 4 µg/mL (≈ 10.1 µM) | MBC (Proteus mirabilis; [13]): 16 µg/mL (≈ 40.4 µM) | MIC (Proteus mirabilis; [13]): 8 µg/mL (≈ 20.2 µM) | ED50 (Enterobacter cloacae): > 400 mg/kg | MIC (Klebsiella pneumoniae [2]; read-out: Minimum Inhibitory Concentration, Klebsiella pneumoniae strain 1, A, Inoculum of 10^2 organisms): 2 µg/mL (≈ 5.04 µM) | MIC (Klebsiella pneumoniae [2]; read-out: Minimum Inhibitory Concentration, Klebsiella pneumoniae strain 1, B, Inoculum of 10^6 organisms): 8 µg/mL (≈ 20.2 µM) | MIC (Klebsiella pneumoniae [2]; read-out: Minimum Inhibitory Concentration, Klebsiella pneumoniae strain 2, A, Inoculum of 10^2 organisms): 2 µg/mL (≈ 5.04 µM) | MIC (Klebsiella pneumoniae [2]; read-out: Minimum Inhibitory Concentration, Klebsiella pneumoniae strain 2, B, Inoculum of 10^6 organisms): 32 µg/mL (≈ 80.7 µM) | MIC (Klebsiella pneumoniae [2]; read-out: Minimum Inhibitory Concentration, Klebsiella pneumoniae strain 3, A, Inoculum of 10^2 organisms): 2 µg/mL (≈ 5.04 µM) | MIC (Klebsiella pneumoniae [2]; read-out: Minimum Inhibitory Concentration, Klebsiella pneumoniae strain 3, B, Inoculum of 10^6 organisms): 16 µg/mL (≈ 40.4 µM) | MIC (Klebsiella pneumoniae [2]; read-out: Minimum Inhibitory Concentration, Klebsiella pneumoniae strain 4, A, Inoculum of 10^2 organisms): 2 µg/mL (≈ 5.04 µM) | MIC (Klebsiella pneumoniae [2]; read-out: Minimum Inhibitory Concentration, Klebsiella pneumoniae strain 4, B, Inoculum of 10^6 organisms): 8 µg/mL (≈ 20.2 µM) | MIC (Klebsiella pneumoniae [2]; read-out: Minimum Inhibitory Concentration, Klebsiella pneumoniae strain 5, A, Inoculum of 10^2 organisms): 2 µg/mL (≈ 5.04 µM) | MIC (Klebsiella pneumoniae [2]; read-out: Minimum Inhibitory Concentration, Klebsiella pneumoniae strain 5, B, Inoculum of 10^6 organisms): 32 µg/mL (≈ 80.7 µM) | MIC (Klebsiella pneumoniae [2]; read-out: Minimum Inhibitory Concentration, Klebsiella pneumoniae strain 6, A, Inoculum of 10^2 organisms): 1 µg/mL (≈ 2.52 µM) | MIC (Klebsiella pneumoniae [2]; read-out: Minimum Inhibitory Concentration, Klebsiella pneumoniae strain 6, B, Inoculum of 10^6 organisms): 16 µg/mL (≈ 40.4 µM) | MIC (Edwardsiella tarda): 1 µg/mL (≈ 2.52 µM) | MIC (Pasteurella multocida): 0.09 µg/mL (≈ 0.227 µM)
